Source: PubChem BioAssay AID1963861 (Molecular Pharmacology Branch, DTP, NCI, 2024)

Tested on: 885724-159-R-J1-PDC KRAS PDC multicell spheroid viability
Assay: Anticancer human tumor 885724-159-R-J1-PDC patient-derived pancreatic adenocarcinoma cell line growth inhibition [KRAS2]
Conditions: for IC50: curve of first compound; for viability, T/C: stronger effect = lower value
Source text: Multicellular complex tumor spheroid response to RAS pathway inhibitors in combination with a targeted agents in patient-derived cell lines with oncogenic KRAS variants from multiple cancer types
A high-throughput screen of multi-cell type tumor spheroids was designed to identify active combinations of targeted small molecules and KRAS pathway inhibitors. Complex spheroids include a stromal component modeled by human endothelial cells (HUVEC) and fibroblasts modeled by human mesenchymal stem cells (MSCs). The concentration ranges selected for each drug and investigational agent were based upon clinically achievable concentrations if the clinical Cmax of the agent was known.
Compounds. The drugs and investigational agents: BI-3406 (NSC825286), BAY-293 (NSC824723), batoprotafib (TNO155; NSC825523), sotorasib (AMG 510; NSC818433), MRTX1257 (NSC819558), elimusertib (BAY 1895344; NSC800525), molibresib (GSK525762; NSC774829), temuterkib (LY3214996; NSC803410), venetoclax (NSC766270), alisertib (NSC759677), olaparib (NSC753686), talazoparib (NSC767125), erdafitinib (NSC781556), ipatasertib (NSC767898), cabozantinib (NSC761068), nintedanib (NSC756659), abemaciclib (NSC768073), docetaxel (NSC628503), trametinib (NSC758246), and sapanisertib (NSC764658) were obtained from the National Cancer Institute (NCI) Developmental Therapeutics Program Chemical Repository. The FDA-approved anticancer drug set is available from the Developmental Therapeutics Program. […] The stock solutions were prepared in dimethyl sulfoxide (DMSO, Sigma-Aldrich, St. Louis, MO, cat. D2650) at 800-fold the tested concentration and stored at -70 degrees C prior to their use. All drugs and investigational agents were tested over a range starting from a high concentration at or near the clinical Cmax and decreasing in half-log increments. If the clinical Cmax for an agent had not been determined, the highest concentration tested was 10 microM.
Cell Culture. All cells were maintained in an incubator at 37 degrees C and 5% CO2 with 95% humidity. The PDC lines were cultured according to standard operating procedures established by the NCI PDMR (https://pdmr.cancer.gov/sops/default.htm). Briefly, all PDCs were thawed and cultured in Matrigel-coated flasks prepared with a working solution of 1X Ham's F-12 nutrient mix, without supplementation (Invitrogen, Waltham, MA, cat. 11765054), 100 U/mL penicillin-streptomycin (Invitrogen, cat. 15140122), and 2.5% Matrigel (Corning Inc., Corning, NY, cat. 354248) for the first three passages. All PDCs were cultured in complete DMEM/F-12 media containing advanced DMEM/F-12 (Invitrogen, cat. 12634028), 4.9% defined fetal bovine serum, heat inactivated (HyClone Laboratories Inc., Logan, UT, cat. SH30070.03HI), 389 ng/mL hydrocortisone (Sigma-Aldrich, cat. H4001), 9.7 ng/mL human EGF recombinant protein (Invitrogen, cat. PHG0313), 23.4 microg/mL adenine (Sigma-Aldrich, cat. A2786), 97.3 U/mL penicillin-streptomycin (Invitrogen, cat. 15140122), 1.9 mM L-glutamine (Invitrogen, cat. 25030081), and 9.7 microM Y-27632 dihydrochloride (Tocris Bioscience, Bristol, United Kingdom, cat. 1254). The PDCs were cultured in complete DMEM/F12 media without 9.7 microM Y-27632 dihydrochloride for at least two passages prior to the screen. The established cell line HOP-62 was cultured in RPMI 1640 medium, HEPES (Invitrogen, cat. 22400105) with 10% defined fetal bovine serum (HyClone Laboratories Inc., cat. SH30070.03) and 2 mM L-glutamine (Invitrogen, cat. 25030081). The pooled donor HUVEC were cultured in endothelial cell growth medium 2 (PromoCell, Heidelberg, Germany, cat. C-22011) and the hMSC were cultured in mesenchymal stem cell growth medium 2 (PromoCell, cat. C-28009). For all experiments, HUVEC and hMSC were used at passages </=5, while the malignant cell lines were used at passages </=15. […]

[1] = second compound 0.1 µM, first compound 0.0316 µM
[2] = second compound 0.1 µM, first compound 0.1 µM
[3] = second compound 0.316 µM, first compound 0.0316 µM
[4] = second compound 0.316 µM, first compound 0.1 µM
[5] = second compound 1 µM, first compound 0.0316 µM
[6] = second compound 1 µM, first compound 0.1 µM
[7] = second compound 3.16 µM, first compound 0.0316 µM
[8] = second compound 3.16 µM, first compound 0.1 µM
[9] = second compound 10 µM, first compound 0.0316 µM
[10] = second compound 10 µM, first compound 0.1 µM
[11] = second compound 0.1 µM, first compound 0.000316 µM
[12] = second compound 0.1 µM, first compound 0.001 µM
[13] = second compound 0.1 µM, first compound 0.00316 µM
[14] = second compound 0.1 µM, first compound 0.01 µM
[15] = second compound 0.316 µM, first compound 0.000316 µM
[16] = second compound 0.316 µM, first compound 0.001 µM
[17] = second compound 0.316 µM, first compound 0.00316 µM
[18] = second compound 0.316 µM, first compound 0.01 µM
[19] = second compound 1 µM, first compound 0.000316 µM
[20] = second compound 1 µM, first compound 0.001 µM
[21] = second compound 1 µM, first compound 0.00316 µM
[22] = second compound 1 µM, first compound 0.01 µM
[23] = second compound 3.16 µM, first compound 0.000316 µM
[24] = second compound 3.16 µM, first compound 0.001 µM
[25] = second compound 3.16 µM, first compound 0.00316 µM
[26] = second compound 3.16 µM, first compound 0.01 µM
[27] = second compound 10 µM, first compound 0.000316 µM
[28] = second compound 10 µM, first compound 0.001 µM
[29] = second compound 10 µM, first compound 0.00316 µM
[30] = second compound 10 µM, first compound 0.01 µM
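Further: spheroids exposed to agents for 7 days before readout.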

SMILES | IC50 (second compound 0.1 µM) | IC50 (second compound 0.316 µM) | IC50 (second compound 1 µM) | IC50 (second compound 3.16 µM) | IC50 (second compound 10 µM) | viability, T/C [1] | viability, T/C [2] | viability, T/C [3] | viability, T/C [4] | viability, T/C [5] | viability, T/C [6] | viability, T/C [7] | viability, T/C [8] | viability, T/C [9] | viability, T/C [10] | viability, T/C [11] | viability, T/C [12] | viability, T/C [13] | viability, T/C [14] | viability, T/C [15] | also measured
O=C(c1cc(Cc2n[nH]c(=O)c3ccccc23)ccc1F)N1CCN(C(=O)C2CC2)CC1 + CNCc1ccccc1-c1csc(C(C)Nc2nc(C)nc3cc(OC)c(OC)cc23)c1 | > 10000 nM | > 10000 nM | > 10000 nM | < 31.6 nM | < 31.6 nM | 110% | 112% | 107% | 107% | 105% | 112% | 1.34% | 1.56% | 0.23% | 0.26% |  |  |  |  |  | viability, T/C (second compound 0.1 µM, first compound 0.316 µM): 98.4%; viability, T/C (second compound 0.1 µM, first compound 1 µM): 101%; viability, T/C (second compound 0.1 µM, first compound 3.16 µM): 96.2%; viability, T/C (second compound 0.1 µM, first compound 10 µM): 84.7%; viability, T/C (second compound 0.316 µM, first compound 0.316 µM): 103%; viability, T/C (second compound 0.316 µM, first compound 1 µM): 96.4%; viability, T/C (second compound 0.316 µM, first compound 3.16 µM): 94.6%; viability, T/C (second compound 0.316 µM, first compound 10 µM): 81.7%; viability, T/C (second compound 1 µM, first compound 0.316 µM): 104%; viability, T/C (second compound 1 µM, first compound 1 µM): 95.7%; viability, T/C (second compound 1 µM, first compound 3.16 µM): 91.9%; viability, T/C (second compound 1 µM, first compound 10 µM): 81.8%; viability, T/C (second compound 3.16 µM, first compound 0.316 µM): 0.78%; viability, T/C (second compound 3.16 µM, first compound 1 µM): 0.88%; viability, T/C (second compound 3.16 µM, first compound 3.16 µM): 1%; viability, T/C (second compound 3.16 µM, first compound 10 µM): 1.09%; viability, T/C (second compound 10 µM, first compound 0.316 µM): 0.21%; viability, T/C (second compound 10 µM, first compound 1 µM): 0.28%; viability, T/C (second compound 10 µM, first compound 3.16 µM): 0.28%; viability, T/C (second compound 10 µM, first compound 10 µM): 0.68%
Cn1ncnc1[C@H]1c2n[nH]c(=O)c3cc(F)cc(c23)N[C@@H]1c1ccc(F)cc1 + CNCc1ccccc1-c1csc(C(C)Nc2nc(C)nc3cc(OC)c(OC)cc23)c1 | > 100 nM | > 100 nM | > 100 nM | < 0.316 nM | < 0.316 nM | 80.2% | 80% | 77.4% | 71.3% | 74.2% | 76.9% | 0.71% | 0.75% | 0.22% | 0.48% | 100% | 104% | 88.8% | 99.5% | 92.6% | viability, T/C [16]: 89.2%; viability, T/C [17]: 84.1%; viability, T/C [18]: 98%; viability, T/C [19]: 82.5%; viability, T/C [20]: 83.4%; viability, T/C [21]: 91.2%; viability, T/C [22]: 78.5%; viability, T/C [23]: 1.47%; viability, T/C [24]: 1.04%; viability, T/C [25]: 0.71%; viability, T/C [26]: 0.73%; viability, T/C [27]: 0.51%; viability, T/C [28]: 0.45%; viability, T/C [29]: 0.13%; viability, T/C [30]: 0.3%
CC(C)n1nc(-c2ccc3oc(N)nc3c2)c2c(N)ncnc21 + COc1cc2nc(C)nc(NC(C)c3cc(N)cc(C(F)(F)F)c3)c2cc1OC1CCOC1 | 17 nM | 20.3 nM | 18.1 nM | 7.62 nM | < 0.316 nM | 47% | 40.3% | 45% | 39.2% | 46.9% | 42% | 47% | 42.6% | 31.4% | 20.9% | 91.2% | 76.2% | 62.7% | 53.2% | 90.3% | viability, T/C [16]: 75.8%; viability, T/C [17]: 66.4%; viability, T/C [18]: 57.2%; viability, T/C [19]: 93%; viability, T/C [20]: 78.8%; viability, T/C [21]: 59.7%; viability, T/C [22]: 56%; viability, T/C [23]: 76.4%; viability, T/C [24]: 69.8%; viability, T/C [25]: 54.8%; viability, T/C [26]: 49.1%; viability, T/C [27]: 36.4%; viability, T/C [28]: 24.9%; viability, T/C [29]: 47.5%; viability, T/C [30]: 39.8%
